From PMC9278656 (Journal of medicinal chemistry, 2021)
Where a name gives a salt, the structure may show the parent alone. Read-outs that look alike come from different tables or passages of the source.

How the values were obtained:
p53^R175H = test: Immunofluorescence with conformation-specific antibodies PAB1620/PAB240; format: cell-based
Ionophore activity = details: larger number indicates weaker ionophore activity
Caco-2 permeability = format: in vitro ADME; details: human
[1] = test system: Rat Sodium Channel site 2; test: CEREP safety screen, sodium channel site 2; format: binding; details: 10 μM
[2] = molecular target: Human Norepinephrine Transporter (Homo sapiens, UniProt P23975); test: CEREP safety screen, norepinephrine transporter; format: binding; details: 10 μM
[3] = test system: p53 wild type and p53 null cell lines; test: Cell kill in p53 wild type and p53 null cell lines; format: cell-based; details: allele selectivity, Suppl. Figure S1
[4] = test system: MDA-MB-468 (p53^R273H) tumors; test: Xenograft tumor assay, MDA-MB-468; format: in vivo, nude mice NCr nu/nu; details: non Zn-deficient mutation, Suppl. Figure S2
[5] = NCr nu/nu nude, mouse, in vivo, ip
[6] = cited from earlier work
TOV-112D (p53^R175H) = test: Cell growth inhibition assay; format: cell-based; details: Homo sapiens, TOV112D, 72 h, read-out: EC50 TOV-112D
H1299 cells (p53 null) = test: Oxidative stress detection, CellROX Green, flow cytometry; format: cell-based; details: 0.75 μM compound, 24 h, relative to ZMC1
Human hERG = Human hERG (Homo sapiens, UniProt Q12809); test: CEREP safety screen, hERG [3H]-dofetilide; format: binding; details: 10 μM
TOV-112D cells = test: Combination of C85 with γ-irradiation or etoposide, cell growth inhibition; format: cell-based; details: Homo sapiens, TOV112D, read-out: EC50, C85 only
[7] = Hydrolytic stability in SGF and PBS; format: physicochemical; details: 6 h
[8] = read-out: KZn; order of magnitude, stated in Conclusions

Sequence of Human Norepinephrine Transporter (P23975 whole entry): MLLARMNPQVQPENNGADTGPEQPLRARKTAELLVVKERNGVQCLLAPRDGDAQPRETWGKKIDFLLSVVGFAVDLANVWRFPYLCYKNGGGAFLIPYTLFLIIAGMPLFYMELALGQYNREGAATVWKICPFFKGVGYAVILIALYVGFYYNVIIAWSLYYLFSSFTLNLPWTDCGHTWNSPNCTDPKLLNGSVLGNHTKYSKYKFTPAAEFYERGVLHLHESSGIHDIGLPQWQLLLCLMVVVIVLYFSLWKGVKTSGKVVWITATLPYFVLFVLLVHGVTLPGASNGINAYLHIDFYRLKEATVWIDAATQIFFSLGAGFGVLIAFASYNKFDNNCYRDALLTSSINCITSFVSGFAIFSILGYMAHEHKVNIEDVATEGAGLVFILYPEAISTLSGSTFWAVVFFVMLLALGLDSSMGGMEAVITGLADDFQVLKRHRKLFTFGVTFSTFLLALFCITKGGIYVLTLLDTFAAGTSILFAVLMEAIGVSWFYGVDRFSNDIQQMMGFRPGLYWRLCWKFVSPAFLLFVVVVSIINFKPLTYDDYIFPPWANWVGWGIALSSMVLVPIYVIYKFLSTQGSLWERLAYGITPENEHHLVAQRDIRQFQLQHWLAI
Sequence of Human hERG (Q12809 whole entry): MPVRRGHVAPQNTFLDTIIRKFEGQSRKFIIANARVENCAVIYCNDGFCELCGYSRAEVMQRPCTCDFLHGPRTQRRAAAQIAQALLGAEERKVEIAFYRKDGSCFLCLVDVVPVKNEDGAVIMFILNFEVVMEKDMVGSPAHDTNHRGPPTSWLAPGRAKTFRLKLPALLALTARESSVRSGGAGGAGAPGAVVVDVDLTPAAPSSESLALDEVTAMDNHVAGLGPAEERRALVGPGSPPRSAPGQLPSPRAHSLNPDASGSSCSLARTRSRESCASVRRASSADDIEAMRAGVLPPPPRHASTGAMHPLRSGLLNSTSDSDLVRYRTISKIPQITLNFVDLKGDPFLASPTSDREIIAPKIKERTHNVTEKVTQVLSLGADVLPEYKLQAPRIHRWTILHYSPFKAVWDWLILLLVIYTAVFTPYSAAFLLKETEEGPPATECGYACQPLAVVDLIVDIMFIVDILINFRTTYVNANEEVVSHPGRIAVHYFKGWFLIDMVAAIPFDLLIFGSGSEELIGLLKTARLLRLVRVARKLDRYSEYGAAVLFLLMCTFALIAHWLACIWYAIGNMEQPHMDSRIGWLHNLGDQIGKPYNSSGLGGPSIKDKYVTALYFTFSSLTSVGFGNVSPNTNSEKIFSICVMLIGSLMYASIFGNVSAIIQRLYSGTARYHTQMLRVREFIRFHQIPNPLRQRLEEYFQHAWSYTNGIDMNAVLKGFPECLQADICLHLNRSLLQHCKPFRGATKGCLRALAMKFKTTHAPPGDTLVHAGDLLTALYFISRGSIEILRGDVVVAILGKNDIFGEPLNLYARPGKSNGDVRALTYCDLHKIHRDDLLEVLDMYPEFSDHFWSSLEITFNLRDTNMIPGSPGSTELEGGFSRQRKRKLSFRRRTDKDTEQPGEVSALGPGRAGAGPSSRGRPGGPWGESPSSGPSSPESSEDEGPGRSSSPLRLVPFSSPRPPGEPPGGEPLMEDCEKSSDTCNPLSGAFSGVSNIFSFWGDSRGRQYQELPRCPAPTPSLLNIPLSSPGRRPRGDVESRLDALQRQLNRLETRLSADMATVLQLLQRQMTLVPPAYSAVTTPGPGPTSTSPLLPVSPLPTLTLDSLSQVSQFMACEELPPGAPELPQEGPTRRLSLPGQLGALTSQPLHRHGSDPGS

Row | Structure (SMILES) | Refolding p53^R175H → wild type (p53^R175H) | Refolding p53^R175H → wild type (p53^R175H; listed as Cl) | Ionophore Ji drug/Ji DMSO (Ionophore activity) | Papp at 90 min, 5 μM (Caco-2 permeability) [×10⁻⁶ cm/s] | Activity against the sodium channel, in words [1] | Activity against the norepinephrine transporter, in words [2] | Cell kill in p53 wild type and p53 null cell lines [3] | Tumor growth inhibition of p53^R273H tumors [4] | Well tolerated dose without significant weight loss [5] | Aqueous solubility [6] | EC50 (TOV-112D (p53^R175H)) [nM] | ROS (ROS/ZMC1 ROS) (H1299 cells (p53 null)) | hERG inhibition, in words (Human hERG) | EC50 (TOV-112D cells; light or radiation study, 72 h) [nM] | EC50 (TOV-112D cells) [nM] | Compound remaining ([7]; SGF pH 1–2, 37 °C) [%] | Compound remaining ([7]; SGF pH 1–2, room temperature) [%] | Kd [8] [nM]
1 | C/C(=N\Nc1nc2ccccc2s1)c1ccccn1 [C1, (E)-2-(2-(1-(Pyridin-2-yl)ethylidene)hydrazinyl)benzo[d]thiazole] | induced a wild-type conformational change | YES | 11.6 -log[mol/m^2s] | 4.4 ± 0.1 | showed activity | showed activity | almost no cell kill | did not inhibit the tumor growth | up to 30 mg/kg | low aqueous solubility | – | – | – | – | – | – | – | –
2 | C/C(=N\Nc1nc2ccccc2n1CCN1CCCC1)c1ccccn1 [C69, (E)-2-(2-(1-(Pyridin-2-yl)ethylidene)hydrazineyl)-1-(2-(pyrrolidin-1-yl)ethyl)-1H-benzo[d]imidazole HCl] | YES | – | 11.6 -log[mol/m^2s] | – | showed activity | showed activity | – | – | – | – | 93 | 1.2 | strong hERG inhibition | – | – | – | – | –
3 | C/C(=N\Nc1nc2ccccc2n1CCN1CCC(F)(F)C1)c1ccccn1 [C85, (E)-1-(2-(3,3-Difluoropyrrolidin-1-yl)ethyl)-2-(2-(1-(pyridin-2-yl)ethylidene)hydrazineyl)-1H-benzo[d]imidazole HCl] | could induce a wild-type conformational change and YES | – | 12.2 -log[mol/m^2s] | – | – | – | – | – | – | – | – | 0.8 | potent hERG inhibition | 710 | 570 | > 82 | > 92 | –
4 | C/C(=N\NC(=S)N1CCC1)c1ccccn1 [ZMC1, (E)-N′-(1-(Pyridin-2-yl)ethylidene)azetidine-1-carbothiohydrazide, reference compound] | – | – | 12.4 -log[mol/m^2s] | 15.6 ± 1.3 | – | – | – | – | – | – | – | – | – | – | – | – | – | 10
